Columns and labels:
[1] = tested on: LPS induced synovial inflammation in rabbit knee; assay: Rabbit model of destructive joint inflammation (intra-articular LPS); assay type: in vivo, female New Zealand rabbits; details: for synovium inflammation score: 16 h, score 1 minimal, 2 mild, 3 moderate, 4 moderate-marked, vehicle 3
Description: This study design mimics the destructive joint inflammation seen in arthritis. Intra-articular injection of LPS causes an acute inflammatory response characterized by the release of cytokines and chemokines, many of which have been identified in rheumatoid arthritic joints. Marked increases in leukocytes occur in synovial fluid and in synovium in response to elevation of these chemotactic mediators. Selective antagonists of chemokine receptors have shown efficacy in this model (see Podolin, et al., J. Immunol. 169(11):6435-6444 (2002)).
Sixteen hours after the LPS injection, knees were lavaged and cells counts performed. Beneficial effects of treatment were determined by histopathologic evaluation of synovial inflammation. The following inflammation scores were used for the histopathologic evaluation: 1—minimal, 2—mild, 3—moderate, 4—moderate-marked.

[2] = tested on: arthritis induced clinical ankle swelling; assay: Rat model of collagen induced arthritis (17 day developing type II collagen arthritis); assay type: in vivo, female Lewis rats; details: 25 mg/kg sub-cutaneous daily day 0 till day 17
Experimental: A 17 day developing type II collagen arthritis study was conducted to evaluate the effects of compound 1.028 on arthritis induced clinical ankle swelling. Rat collagen arthritis is an experimental model of polyarthritis that has been widely used for preclinical testing of numerous anti-arthritic agents (see Trentham, et al., J. Exp. Med. 146(3):857-868 (1977), Bendele, et al., Toxicologic Pathol. 27:134-142 (1999), Bendele, et al., Arthritis Rheum. 42:498-506 (1999)). The hallmarks of this model are reliable onset and progression of robust, easily measurable polyarticular inflammation, marked cartilage destruction in association with pannus formation and mild to moderate bone resorption and periosteal bone proliferation. Female Lewis rats (approximately 0.2 kilograms) were anesthetized with isoflurane and injected with Freund's Incomplete Adjuvant containing 2 mg/mL bovine type II collagen at the base of the tail and two sites on the back on days 0 and 6 of this 17 day study. Compound 1.028 was dosed daily in a sub-cutaneous manner from day 0 till day 17 at a dose of 25 mg/kg and a volume of 1 mL/kg in the following vehicle (20% N,N-dimethylacetamide, 75% corn oil, 5% Tween-80). Caliper measurements of the ankle joint diameter were taken, and reducing joint swelling was taken as a measure of efficacy.

Cc1c(Cl)c(C(F)(F)F)nn1CC(=O)N1CCN(c2ccc(F)cc2)CC1 [CCX-105]
synovium inflammation score ([1]; dose 1=50 μM intra-articular with LPS 10 ng): 2
synovium inflammation score ([1]; dose 2=100 μM intra-articular with LPS 10 ng): 1
Inhibition of the inflammatory response ([1]; rabbit LPS intra-articular model): significantly and specifically inhibit the inflammatory response

COc1cc(N2CCN(C(=O)Cn3nc(C(F)(F)F)c(Cl)c3C)CC2)c(Cl)cc1Cl [Compound 1.028]
Inhibition of arthritis induced ankle swelling [2]: significantly and specifically inhibit the arthritis induced ankle swelling
change in joint diameter day9-day17 ([2]; vehicle 15.7% +/− 2.0%, normal 0% +/− 0.3%): 9.1% +/− 1.8%

— patent publication US8324216B2, “Substituted piperazines” (Chemocentryx, Inc., priority 2002, dated 2012)
